Earlier results, collected in patent publication US5786344A, “Camptothecin drug combinations and methods with reduced side effects” (priority 1995, dated 1998).
“Also recorded” adds a separate entry of the source. Structures can show the parent of a compound that is named as a salt. Where two headings read alike, the source gives them in different places. *1 amine or outer side, *2 acyl side, *3 side chain or, on linkers, in order; H or OH if unused. Where a SMILES comes first, the peptide text is derived from it. Bridges are numbered along the chain shown (N, C = ends). Roman numbers before positions name the chains, in order. [ ]: non-standard residue; d: D form. Actinocin(9to1) = Cc1c2oc3c(C)ccc(C(=O)[*:1])c3nc-2c(C(=O)[*:2])c(N)c1=O; NMeV = CN[C@H](C(=O)O)C(C)C; Sar = CNCC(=O)O

Columns and labels:
p-glycoprotein [1] = details: cited from earlier work; for inhibition of photoaffinity labeling of p-glycoprotein: photolabeling
[2] = system: outwardly-rectifying chloride channel; details: 50 μM; cited from earlier work
p-glycoprotein [3] = details: renal tubules; cited from earlier work
[4] = cited from earlier work; for plasma concentration: single dose 600 mg
[5] = system: multidrug resistant (MDR) cells; details: cited from earlier work
[6] = cited from earlier work
plasma proteins = details: cited from earlier work
p-glycoprotein [7] = details: hydrochloride, cited from earlier work
tumors = details: preclinical and clinical tumors; cited from earlier work
[8] = plasma/serum/terminal or elimination half-life
[9] = listed as Trifluoperazine, dihydrochloride

In the case of `COc1cc2c(c(OC)c1OC)-c1ccc(OC)c(=O)cc1[C@@H](NC(C)=O)CC2` [colchicine], the “inhibition of / interaction with p-glycoprotein” value (p-glycoprotein [1]) is listed as “inhibiting p-glycoprotein; also recorded: binding to p-glycoprotein”, the “block of chloride channel / transport associated with p-glycoprotein” value [2] is listed as “blocked” and the “inhibition of p-glycoprotein-mediated transport” value (p-glycoprotein [3]) is listed as “inhibitors”. For the same molecule, the “oral absorption” value ([4]; oral) was “well-absorbed”.

For `OCCN1CCN(CC/C=C2\c3ccccc3Sc3ccc(C(F)(F)F)cc32)CC1` [trans-flupenthixol], the “reversal of drug resistance” value [5] is listed as “reversed cellular resistance to various drugs only in p-glycoprotein expressing cell lines; also recorded: fully reversed resistance to doxorubicin, vincristine, and colchicine”, the “potency for reversing MDR relative to verapamil” value ([5]; equimolar concentrations) is listed as “two- to three-fold more potent” and the clinical toxicity ([6]; human, in vivo) is listed as “apparent lack of clinical toxicity”.

For `CC[C@]1(O)C[C@H]2CN(CCc3c([nH]c4ccccc34)[C@@](C(=O)OC)(c3cc4c(cc3OC)N(C=O)[C@H]3[C@@](O)(C(=O)OC)[C@H](OC(C)=O)[C@]5(CC)C=CCN6CC[C@]43[C@@H]65)C2)C1` [vincristine], the inhibition of p-glycoprotein (p-glycoprotein [1]; 10 μM) is given as 95%, the “inhibition of / interaction with p-glycoprotein” value (p-glycoprotein [1]) is given as “p-glycoprotein inhibitor” and the “p-glycoprotein inhibition relative to comparator” value (p-glycoprotein [1]; vs verapamil, cyclosporine A, progesterone or anthracycline analogues) is given as “more potent than anthracycline analogues”. The “plasma protein binding” value (plasma proteins) was “bind to plasma proteins”, the “oral absorption” value ([4]; oral) was “Unpredictable absorption” and the half-life ([4]; plasma or terminal half-life) was “about 24 hours”. For the same molecule, the Cmax ([4]; read-out: peak concentration in plasma, usual clinical doses) was about 400 nM.

In the case of `OCCN1CCN(CCCN2c3ccccc3Sc3ccc(C(F)(F)F)cc32)CC1` [Fluphenazine hydrochloride], the onset of action ([6]; human, in vivo) is given as at most 1 h, the “potency relative to chlorpromazine / other phenothiazines” value ([6]; human, in vivo) is given as “more potent” and the duration of action ([6]; oral or intramuscular) is given as 6 h. For the same molecule, the “oral absorption” value ([4]; oral) was “absorbed rapidly”.

For `COc1cccc2c1C(=O)c1c(O)c3c(c(O)c1C2=O)C[C@@](O)(C(C)=O)C[C@@H]3O[C@H]1C[C@H](N)[C@H](O)[C@H](C)O1` [daunomycin], the “inhibition of / interaction with p-glycoprotein” value (p-glycoprotein [1]) is given as “p-glycoprotein inhibitor” and the “block of chloride channel / transport associated with p-glycoprotein” value [2] is given as “blocked”.

For `CC(C)(Oc1ccc(Cl)cc1)C(=O)O` [clofibric acid], the “plasma protein binding” value (plasma proteins) is given as “bound strongly to plasma proteins”, the fraction metabolized ([4]; human, in vivo) is given as “About 60%” and the half-life ([4]; human, in vivo) is given as 6 to 25 h. The half-life in anuria ([4]; human, in vivo) was “over 100 hr” and the “half-life, average or usual” value ([4]; human, in vivo) was 11 h.

For `OCCN1CCN(CC/C=C2/c3ccccc3Sc3ccc(C(F)(F)F)cc32)CC1` [cis-flupenthixol], the “reversal of drug resistance” value [5] is listed as “reversed cellular resistance to various drugs only in p-glycoprotein expressing cell lines”.

In the case of `CSc1ccc2c(c1)N(CCC1CCCCN1C)c1ccccc1S2` (centres unmarked) [Thioridazine, 10H-Phenothiazine, 10-[2-(1-methyl-2-piperidinyl)ethyl]-2-(methylthio)-], the plasma protein binding (plasma proteins; plasma) is listed as 96-99%, the “half-life, early phase” value ([4]; human, in vivo) is listed as 4 to 10 h and the “half-life, late phase” value ([4]; human, in vivo) is listed as 26 to 36 h.

For `C[C@@H]1C[C@H]2[C@@H]3CCC4=CC(=O)C=C[C@]4(C)C3=CC[C@]2(C)[C@H]1C(=O)CN1CCN(c2cc(N3CCCC3)nc(N3CCCC3)n2)CC1` [Tirilazad], the “inhibition of / interaction with p-glycoprotein” value (p-glycoprotein [1]) is given as “potent inhibitors”, the “inhibition of photoaffinity labeling of p-glycoprotein” value (p-glycoprotein [1]) is given as “more effectively than does verapamil” and the “sensitivity of nonresistant parental cells” value ([5]; nonresistant parental cells) is given as “does not change the sensitivity of nonresistant parental cells”. The “sensitization of resistant cells to killing by vinblastine” value ([5]; resistant cells) was 66 fold.

For `COc1cccc2c1C(=O)c1c(O)c3c(c(O)c1C2=O)C[C@@](O)(C(C)=O)C[C@@H]3O[C@H]1C[C@H](N)[C@H](O)[C@H](C)O1` [daunorubicin, hydrochloride], the “inhibition of amphiphilic cation transport” value (p-glycoprotein [7]) is listed as “inhibited”, the “inhibition of amphiphilic cation transport” value (p-glycoprotein [7]; listed as Daunorubicin) is listed as “inhibit” and the distribution half-life ([4]; human, in vivo, iv) is listed as 0.75 h. The “oral absorption” value ([4]; human, in vivo, po) was “Oral absorption is poor”, the biliary secretion ([4]; human, in vivo) was about 40% and the half-life [4, 8] was “about 19 hr”.

For `CC[C@@]1(O)C(=O)OCc2c1cc1n(c2=O)Cc2cc3c(N)cccc3nc2-1` [9-AC, 9-amino-20(s)-camptothecin], the “antitumor activity” value (tumors) is given as “significant activity of 9-AC against colon cancer”.

In the case of `Cc1c2oc3c(C)ccc(C(=O)N[C@@H]4C(=O)N[C@H](C(C)C)C(=O)N5CCC[C@H]5C(=O)N(C)CC(=O)N(C)[C@@H](C(C)C)C(=O)O[C@@H]4C)c3nc-2c(C(=O)N[C@@H]2C(=O)N[C@H](C(C)C)C(=O)N3CCC[C@H]3C(=O)N(C)CC(=O)N(C)[C@@H](C(C)C)C(=O)O[C@@H]2C)c(N)c1=O` [actinomycin D] (I: T[dV]P[Sar][NMeV] / II: T[dV]P[Sar][NMeV]; ester I:1-I:C, II:1-II:C; linker I:N-II:N via Actinocin(9to1)), the “inhibition of / interaction with p-glycoprotein” value (p-glycoprotein [1]) is given as “inhibitor of p-glycoprotein”, the “inhibition of p-glycoprotein-mediated transport” value (p-glycoprotein [3]) is given as “inhibitors” and the “CNS / blood-brain barrier penetration” value ([4]; human, in vivo) is given as “does not pass the blood-brain barrier”. The “excreted intact into the bile” value ([4]; human, in vivo) was “Half of the dose”, the urinary excretion ([4]; human, in vivo) was 10% and the half-life [4, 8] was “about 36 hr”.

In the case of `CCN(CC)CCCC(C)Nc1ccnc2cc(Cl)ccc12` (centres unmarked) [Chloroquine], the “reversal of drug resistance” value [5] is given as “partially reverses drug resistance”.

For `CC(=O)O[C@H]1C(=O)[C@@]2(C)[C@H]([C@H](OC(=O)c3ccccc3)[C@]3(O)C[C@H](OC(=O)[C@H](O)[C@@H](NC(=O)c4ccccc4)c4ccccc4)C(C)=C1C3(C)C)[C@]1(OC(C)=O)CO[C@@H]1C[C@@H]2O` [taxol], the “inhibition of / interaction with p-glycoprotein” value (p-glycoprotein [1]) is listed as “interacted with p-glycoprotein” and the “antitumor activity” value (tumors) is listed as “activity against malignant melanoma and carcinoma of the ovary”.

For `CC(C)(C)c1ccc(C(O)CCCN2CCC(C(O)(c3ccccc3)c3ccccc3)CC2)cc1` (stereo not drawn) [Terfenadine, 1-Piperidinebutanol, α-[4-(1,1-dimethylethyl)phenyl]-4-(hydroxydiphenylmethyl)-], the plasma protein binding (plasma proteins; plasma) is listed as 97%, the “drug accumulation and efflux in MDR lines” value ([5]; MDR lines) is listed as “augments the accumulation of doxorubicin and inhibits the effluxof rhodamine 123” and the “drug accumulation or efflux in sensitive cells” value ([5]; sensitive cells) is listed as “no effect”. For the same molecule, the clinical toxicity ([6]; human, in vivo) was “relatively low toxicity profile”, the peak plasma levels ([4]; human, in vivo, po) was 1.5 to 4.5 ng/mL and the distribution half-life ([4]; human, in vivo) was 3.5 h. For the same molecule, the half-life ([4]; human, in vivo) was 16 to 23 h and the “oral absorption” value ([4]; oral) was “absorbed rapidly and almost completely”.

In the case of `CC(C)NCC(O)COc1cccc2ccccc12` (centres unmarked) [Propranolol], the plasma protein binding (plasma proteins; plasma) is given as “Approximately 90%”, the “reversal of drug resistance” value [5] is given as “partially reverse drug resistance” and the “bioavailability / dose reaching the systemic circulation” value ([4]; human, in vivo, po) is given as “about 25%”. For the same molecule, the “inter-individual variability in plasma concentrations” value ([4]; human, in vivo, po) was “approximately 20 fold”, the “CNS / blood-brain barrier penetration” value ([4]; human, in vivo) was “readily enters the CNS” and the volume of distribution ([4]; human, in vivo) was 4 L/kg. For the same molecule, the “oral absorption” value ([4]; oral) was “almost complete absorbed”.

For `CN(C)CCCN1c2ccccc2Sc2ccc(Cl)cc21` [chlorpromazine], the “inhibition of photoaffinity labeling of p-glycoprotein” value (p-glycoprotein [1]) is listed as “poor inhibitors” and the “reversal of drug resistance” value [5] is listed as “effectively reverse multidrug resistance”.

In the case of `CN1CCN(CCCN2c3ccccc3Sc3ccc(C(F)(F)F)cc32)CC1` [trifluoperazine, 1OH-Phenothiazine, 10-[3-(4-methyl-1-piperazinyl)propyl]-2-(trifluoromethyl)-, dihydrochloride], the “inhibition of photoaffinity labeling of p-glycoprotein” value (p-glycoprotein [1]; dihydrochloride) is listed as “poor inhibitors”, the “inhibition of photoaffinity labeling of p-glycoprotein” value (p-glycoprotein [1]; [9]) is listed as “without inhibiting photoaffinity labeling” and the “reversal of drug resistance” value ([5]; dihydrochloride) is listed as “effectively reverse multidrug resistance”. The “reversal of drug resistance” value [5, 9] was “reverses multidrug resistance”.

In the case of `CCOC(=O)C1=C(C)NC(C)=C(C(=O)OC)C1c1cccc([N+](=O)[O-])c1` (centres unmarked) [Nitrendipine, 3,5-Pyridinedicarboxylic acid, 1,4-dihydro-2,6-dimethyl-4-(3-nitrophenyl)-, ethyl methyl ester], the plasma protein binding (plasma proteins; plasma) is given as “About 98%”, the “bioavailability / dose reaching the systemic circulation” value ([4]; human, in vivo, po) is given as 10-22% and the “half-life, average or usual” value ([4]; human, in vivo) is given as about 12 h.

For `COc1ccc([C@@H]2Sc3ccccc3N(CCN(C)C)C(=O)[C@@H]2OC(C)=O)cc1` [Diltiazem, benzothiazepin-4(5H)-one, 3-(acetyloxy)-5-[2-(dimethylamino)ethyl]-2,3-dihydro-2-(4-methoxyphenyl)-,(+) -cis-, monohydrochloride], the “inhibition of / interaction with p-glycoprotein” value (p-glycoprotein [1]) is given as “p-glycoprotein inhibitor”, the plasma protein binding (plasma proteins; plasma) is given as 70-80% and the “bioavailability / dose reaching the systemic circulation” value ([4]; human, in vivo, po) is given as 40-60%. For the same molecule, the oral absorption ([4]; human, in vivo, po) was 80%, the “excreted unchanged (urine)” value ([4]; human, in vivo) was “Less than 4%” and the half-life ([4]; human, in vivo) was “about 4 hr”.

For `OCCN1CCN(CCCN2c3ccccc3Sc3ccc(C(F)(F)F)cc32)CC1` [fluphenazine], the “reversal of drug resistance” value [5] is given as “reversed cellular resistance to various drugs only in p-glycoprotein expressing cell lines”.

In the case of `CC[C@]1(O)C[C@@H]2CN(CCc3c([nH]c4ccccc34)[C@@](C(=O)OC)(c3cc4c(cc3OC)N(C)[C@H]3[C@@](O)(C(=O)OC)[C@H](OC(C)=O)[C@]5(CC)C=CCN6CC[C@]43[C@@H]65)C2)C1` [vinblastine], the “inhibition of / interaction with p-glycoprotein” value (p-glycoprotein [1]) is given as “p-glycoprotein inhibitor; also recorded: interacted with p-glycoprotein”, the “plasma protein binding” value (plasma proteins) is given as “bind to plasma proteins” and the “block of chloride channel / transport associated with p-glycoprotein” value [2] is given as “blocked”. The “inhibition of p-glycoprotein-mediated transport” value (p-glycoprotein [3]) was “inhibitors”, the “plasma half-life, first phase” value ([4]; human, in vivo, iv) was “approximately 1 hours” and the “plasma half-life, second phase” value ([4]; human, in vivo, iv) was about 20 h. The Cmax ([4]; human, in vivo) was about 400 nM, the “excreted unchanged (urine)” value ([4]; human, in vivo) was “Approximately 15%” and the fecal excretion ([4]; human, in vivo) was “about 10%”.

For `Cc1ccc(C)c(OCCCC(C)(C)C(=O)O)c1` [Gemfibrozil], the “potency relative to clofibrate” value ([6]; human, in vivo) is listed as “more potent than clofibrate”, the plasma concentration ([4]; after 2 hours) is listed as “about 15 μg/ml” and the plasma concentration ([4]; after 9 hours) is listed as about 5000 ng/mL.
